# Test results published in PubChem BioAssay (NCI).
#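 Values below derive from 48-hour exposures of cells grown in 96-well plates, with endpoints linearly interpolated between the two concentrations bracketing the appropriate inhibition level. The concentration for full growth arrest is given as TGI.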
# Key:
# Assay in all cases: NCI tumour cell line growth inhibition, 48 h
# RXF 393 renal = test system: RXF 393 renal
# PC-3 prostate = test system: PC-3 prostate
# MALME-3M melanoma = test system: MALME-3M melanoma
# SN12C renal = test system: SN12C renal
# HT29 colon = test system: HT29 colon
# HCT-116 colon = test system: HCT-116 colon
# SNB-19 CNS = test system: SNB-19 CNS
# KM12 colon = test system: KM12 colon
# SF-539 CNS = test system: SF-539 CNS
# MDA-MB-231 breast = test system: MDA-MB-231 breast
# CAKI-1 renal = test system: CAKI-1 renal
# K-562 leukemia = test system: K-562 leukemia
# RPMI-8226 leukemia = test system: RPMI-8226 leukemia
# SF-268 CNS = test system: SF-268 CNS
# MCF7 breast = test system: MCF7 breast
# UACC-62 melanoma = test system: UACC-62 melanoma
# SK-MEL-28 melanoma = test system: SK-MEL-28 melanoma
# SK-MEL-2 melanoma = test system: SK-MEL-2 melanoma
# NCI-H522 lung = test system: NCI-H522 lung
# NCI/ADR-RES ovarian = test system: NCI/ADR-RES ovarian
# A549 NSCLC = test system: A549 NSCLC
# 786-0 renal = test system: 786-0 renal
# MDA-N = test system: MDA-N
# EKVX NSCLC = test system: EKVX NSCLC
# SF-295 CNS = test system: SF-295 CNS
# HCC-2998 colon = test system: HCC-2998 colon
# LOX IMVI melanoma = test system: LOX IMVI melanoma
# UACC-257 melanoma = test system: UACC-257 melanoma
# OVCAR-5 ovarian = test system: OVCAR-5 ovarian
# NCI-H226 lung = test system: NCI-H226 lung
# SR leukemia = test system: SR leukemia
# OVCAR-3 ovarian = test system: OVCAR-3 ovarian
# MDA-MB-435 = test system: MDA-MB-435
# HOP-62 NSCLC = test system: HOP-62 NSCLC
# U251 CNS = test system: U251 CNS
# HCT-15 colon = test system: HCT-15 colon
# UO-31 renal = test system: UO-31 renal
# SW-620 colon = test system: SW-620 colon
# OVCAR-4 ovarian = test system: OVCAR-4 ovarian
# IGROV1 ovarian = test system: IGROV1 ovarian
# MOLT-4 leukemia = test system: MOLT-4 leukemia
# T-47D breast = test system: T-47D breast
# HOP-92 NSCLC = test system: HOP-92 NSCLC
# NCI-H460 lung = test system: NCI-H460 lung
# TK-10 renal = test system: TK-10 renal
# SK-MEL-5 melanoma = test system: SK-MEL-5 melanoma
# A498 renal = test system: A498 renal
# COLO 205 colon = test system: COLO 205 colon
# SNB-75 CNS = test system: SNB-75 CNS
# OVCAR-8 ovarian = test system: OVCAR-8 ovarian
# SK-OV-3 ovarian = test system: SK-OV-3 ovarian
# CCRF-CEM leukemia = test system: CCRF-CEM leukemia
# DU-145 prostate = test system: DU-145 prostate
# NCI-H23 lung = test system: NCI-H23 lung
# ACHN renal = test system: ACHN renal
# M14 melanoma = test system: M14 melanoma
# BT-549 breast = test system: BT-549 breast
# HS 578T breast = test system: HS 578T breast
# HL-60(TB) leukemia = test system: HL-60(TB) leukemia
structure (smiles),measurement,setting,value
C/C(=N/NC(=S)Nc1ccc(Cl)cc1)c1cccc(/C(C)=N\NC(=S)Nc2ccc(Cl)cc2)n1,TGI,RXF 393 renal,27.1 µM
same,TGI,PC-3 prostate,> 100 µM
same,TGI,MALME-3M melanoma,36 µM
same,TGI,SN12C renal,> 100 µM
same,TGI,HT29 colon,> 100 µM
same,TGI,HCT-116 colon,22.4 µM
same,TGI,SNB-19 CNS,> 100 µM
same,TGI,KM12 colon,> 100 µM
same,TGI,SF-539 CNS,10.6 µM
same,TGI,MDA-MB-231 breast,48.4 µM
same,TGI,CAKI-1 renal,39.4 µM
same,TGI,K-562 leukemia,45 µM
same,TGI,RPMI-8226 leukemia,39.7 µM
same,TGI,SF-268 CNS,58.1 µM
same,TGI,MCF7 breast,9.25 µM
same,TGI,UACC-62 melanoma,43.1 µM
same,TGI,SK-MEL-28 melanoma,45.6 µM
same,TGI,SK-MEL-2 melanoma,49.2 µM
same,TGI,NCI-H522 lung,27 µM
same,TGI,NCI/ADR-RES ovarian,91.3 µM
same,TGI,A549 NSCLC,53.2 µM
same,TGI,786-0 renal,21 µM
same,TGI,MDA-N,> 100 µM
same,TGI,EKVX NSCLC,> 100 µM
same,TGI,SF-295 CNS,29.6 µM
same,TGI,HCC-2998 colon,> 100 µM
same,TGI,LOX IMVI melanoma,26.8 µM
same,TGI,UACC-257 melanoma,46.8 µM
same,TGI,OVCAR-5 ovarian,> 100 µM
same,TGI,NCI-H226 lung,47.5 µM
same,TGI,SR leukemia,7.25 µM
same,TGI,OVCAR-3 ovarian,47.1 µM
same,TGI,MDA-MB-435,55.8 µM
same,TGI,HOP-62 NSCLC,45 µM
same,TGI,U251 CNS,60.3 µM
same,TGI,HCT-15 colon,> 100 µM
same,TGI,UO-31 renal,53.2 µM
same,TGI,SW-620 colon,> 100 µM
same,TGI,OVCAR-4 ovarian,> 100 µM
same,TGI,IGROV1 ovarian,> 100 µM
same,TGI,MOLT-4 leukemia,16.7 µM
same,TGI,T-47D breast,> 100 µM
same,TGI,HOP-92 NSCLC,> 100 µM
same,TGI,NCI-H460 lung,56.4 µM
same,TGI,TK-10 renal,> 100 µM
same,TGI,SK-MEL-5 melanoma,18.6 µM
same,TGI,A498 renal,79.5 µM
same,TGI,COLO 205 colon,30.7 µM
same,TGI,SNB-75 CNS,> 100 µM
same,TGI,OVCAR-8 ovarian,8.69 µM
same,TGI,SK-OV-3 ovarian,> 100 µM
same,TGI,CCRF-CEM leukemia,> 100 µM
same,TGI,DU-145 prostate,65.5 µM
same,TGI,NCI-H23 lung,> 100 µM
same,TGI,ACHN renal,40.3 µM
same,TGI,M14 melanoma,8.53 µM
N#CC1=C(Nc2ccccc2)SC=C(c2ccccc2)NC1=NCc1ccccc1,TGI,RXF 393 renal,> 100 µM
same,TGI,PC-3 prostate,> 100 µM
same,TGI,MALME-3M melanoma,> 100 µM
same,TGI,SN12C renal,> 100 µM
same,TGI,HCT-116 colon,> 100 µM
same,TGI,SNB-19 CNS,> 100 µM
same,TGI,KM12 colon,> 100 µM
same,TGI,SF-539 CNS,> 100 µM
same,TGI,MDA-MB-231 breast,> 100 µM
same,TGI,CAKI-1 renal,> 100 µM
same,TGI,K-562 leukemia,97.6 µM
same,TGI,RPMI-8226 leukemia,> 100 µM
same,TGI,SF-268 CNS,> 100 µM
same,TGI,MCF7 breast,> 100 µM
same,TGI,UACC-62 melanoma,> 100 µM
same,TGI,SK-MEL-28 melanoma,> 100 µM
same,TGI,SK-MEL-2 melanoma,> 100 µM
same,TGI,NCI-H522 lung,> 100 µM
same,TGI,NCI/ADR-RES ovarian,> 100 µM
same,TGI,A549 NSCLC,> 100 µM
same,TGI,786-0 renal,> 100 µM
same,TGI,MDA-N,> 100 µM
same,TGI,OVCAR-5 ovarian,> 100 µM
same,TGI,SR leukemia,59.1 µM
same,TGI,OVCAR-3 ovarian,> 100 µM
same,TGI,MDA-MB-435,> 100 µM
same,TGI,HOP-62 NSCLC,> 100 µM
same,TGI,U251 CNS,> 100 µM
same,TGI,HCT-15 colon,> 100 µM
same,TGI,UO-31 renal,> 100 µM
same,TGI,SW-620 colon,> 100 µM
same,TGI,OVCAR-4 ovarian,> 100 µM
same,TGI,MOLT-4 leukemia,> 100 µM
same,TGI,T-47D breast,> 100 µM
same,TGI,TK-10 renal,> 100 µM
same,TGI,SK-MEL-5 melanoma,> 100 µM
same,TGI,A498 renal,> 100 µM
same,TGI,COLO 205 colon,> 100 µM
same,TGI,OVCAR-8 ovarian,> 100 µM
same,TGI,SK-OV-3 ovarian,> 100 µM
same,TGI,DU-145 prostate,> 100 µM
same,TGI,NCI-H23 lung,> 100 µM
same,TGI,ACHN renal,> 100 µM
same,TGI,M14 melanoma,> 100 µM
CC(=O)O[C@H]1CC[C@@]2(C)C(=CC[C@@H]3[C@@H]2CC[C@]2(C)NC(=O)/C(=C\c4ccccc4)C[C@@H]32)C1,TGI,RXF 393 renal,27.8 µM
same,TGI,PC-3 prostate,44.5 µM
same,TGI,MALME-3M melanoma,36.2 µM
same,TGI,SN12C renal,42 µM
same,TGI,HT29 colon,31.2 µM
same,TGI,BT-549 breast,34.2 µM
same,TGI,HCT-116 colon,46.9 µM
same,TGI,SNB-19 CNS,31.8 µM
same,TGI,KM12 colon,42.7 µM
same,TGI,SF-539 CNS,31.1 µM
same,TGI,MDA-MB-231 breast,53 µM
same,TGI,CAKI-1 renal,> 100 µM
same,TGI,K-562 leukemia,> 100 µM
same,TGI,RPMI-8226 leukemia,64.2 µM
same,TGI,SF-268 CNS,37.9 µM
same,TGI,MCF7 breast,59.8 µM
same,TGI,UACC-62 melanoma,33.1 µM
same,TGI,SK-MEL-28 melanoma,32.3 µM
same,TGI,SK-MEL-2 melanoma,39.8 µM
same,TGI,NCI-H522 lung,31.7 µM
same,TGI,NCI/ADR-RES ovarian,63.1 µM
same,TGI,A549 NSCLC,38.5 µM
same,TGI,786-0 renal,41.4 µM
same,TGI,MDA-N,42.6 µM
same,TGI,EKVX NSCLC,34.8 µM
same,TGI,SF-295 CNS,37.5 µM
same,TGI,HCC-2998 colon,62 µM
same,TGI,LOX IMVI melanoma,33.4 µM
same,TGI,UACC-257 melanoma,43.9 µM
same,TGI,OVCAR-5 ovarian,35 µM
same,TGI,NCI-H226 lung,40.8 µM
same,TGI,SR leukemia,> 100 µM
same,TGI,OVCAR-3 ovarian,28.9 µM
same,TGI,MDA-MB-435,33.2 µM
same,TGI,HOP-62 NSCLC,30.1 µM
same,TGI,U251 CNS,37.6 µM
same,TGI,HCT-15 colon,40.4 µM
same,TGI,UO-31 renal,33.1 µM
same,TGI,SW-620 colon,41.9 µM
same,TGI,OVCAR-4 ovarian,43.8 µM
same,TGI,IGROV1 ovarian,42 µM
same,TGI,MOLT-4 leukemia,> 100 µM
same,TGI,T-47D breast,69.2 µM
same,TGI,NCI-H460 lung,95.3 µM
same,TGI,TK-10 renal,80.5 µM
same,TGI,SK-MEL-5 melanoma,23.2 µM
same,TGI,A498 renal,27.6 µM
same,TGI,COLO 205 colon,38.5 µM
same,TGI,SNB-75 CNS,44.3 µM
same,TGI,OVCAR-8 ovarian,45 µM
same,TGI,SK-OV-3 ovarian,44.3 µM
same,TGI,CCRF-CEM leukemia,55.4 µM
same,TGI,DU-145 prostate,48 µM
same,TGI,NCI-H23 lung,33.1 µM
same,TGI,ACHN renal,76.1 µM
same,TGI,M14 melanoma,30.5 µM
Cc1c(C)n(-c2ccccc2)c2nc(S(C)(=O)=O)nc(S(C)(=O)=O)c12,TGI,RXF 393 renal,2.75 µM
same,TGI,PC-3 prostate,10.2 µM
same,TGI,HS 578T breast,> 85.5 µM
same,TGI,MALME-3M melanoma,2.92 µM
same,TGI,SN12C renal,33.8 µM
same,TGI,HT29 colon,3.74 µM
same,TGI,HCT-116 colon,2.98 µM
same,TGI,SNB-19 CNS,25.6 µM
same,TGI,KM12 colon,28.2 µM
same,TGI,SF-539 CNS,27 µM
same,TGI,MDA-MB-231 breast,19.4 µM
same,TGI,CAKI-1 renal,1.55 µM
same,TGI,K-562 leukemia,2.95 µM
same,TGI,RPMI-8226 leukemia,4.94 µM
same,TGI,SF-268 CNS,31.1 µM
same,TGI,MCF7 breast,2.79 µM
same,TGI,HL-60(TB) leukemia,3.35 µM
same,TGI,UACC-62 melanoma,17.6 µM
same,TGI,SK-MEL-28 melanoma,6.73 µM
same,TGI,SK-MEL-2 melanoma,4.21 µM
same,TGI,NCI-H522 lung,3.59 µM
same,TGI,NCI/ADR-RES ovarian,59.9 µM
same,TGI,A549 NSCLC,30.4 µM
same,TGI,786-0 renal,2.55 µM
same,TGI,MDA-N,3.43 µM
same,TGI,EKVX NSCLC,11.7 µM
same,TGI,SF-295 CNS,31.1 µM
same,TGI,HCC-2998 colon,41.2 µM
same,TGI,LOX IMVI melanoma,3.43 µM
same,TGI,UACC-257 melanoma,3.16 µM
same,TGI,OVCAR-5 ovarian,3.63 µM
same,TGI,NCI-H226 lung,47.4 µM
same,TGI,SR leukemia,2.46 µM
same,TGI,OVCAR-3 ovarian,3.02 µM
same,TGI,MDA-MB-435,3.56 µM
same,TGI,HOP-62 NSCLC,33.2 µM
same,TGI,U251 CNS,11.2 µM
same,TGI,HCT-15 colon,3.31 µM
same,TGI,UO-31 renal,3.23 µM
same,TGI,SW-620 colon,2.9 µM
same,TGI,OVCAR-4 ovarian,3.13 µM
same,TGI,IGROV1 ovarian,9.24 µM
same,TGI,MOLT-4 leukemia,2.49 µM
same,TGI,T-47D breast,5.52 µM
same,TGI,HOP-92 NSCLC,3.2 µM
same,TGI,NCI-H460 lung,37.1 µM
same,TGI,TK-10 renal,3.55 µM
same,TGI,SK-MEL-5 melanoma,27.1 µM
same,TGI,A498 renal,28.9 µM
same,TGI,COLO 205 colon,3.29 µM
same,TGI,SNB-75 CNS,34.5 µM
same,TGI,OVCAR-8 ovarian,4.94 µM
same,TGI,SK-OV-3 ovarian,34.2 µM
same,TGI,CCRF-CEM leukemia,2.29 µM
same,TGI,DU-145 prostate,27.7 µM
same,TGI,NCI-H23 lung,23.3 µM
same,TGI,ACHN renal,2.91 µM
same,TGI,M14 melanoma,3.1 µM
